Assays:
DU-145 = assay: In vitro direct cytotoxicity, Cell titer Blue viability, 72 hrs; type: cell-based
Procedure: (§1) Cells were harvested, washed, re-suspended into growth medium and counted.
(§2) Stocks of all compounds were then serially diluted. […] Positive control was Taxotere. Taxotere was diluted in 100% DSMO to give a stock concentration of 1 mM. Stock was serially diluted. Final concentrations to which cells were exposed were 1000, 333.3, 111.1, 37.0, 12.3, 4.1, 1.4, 0.5, and 0.2 nM.

LNCaP = assay: as above; type: cell-based
Procedure: as §1, §2

MCF7 = assay: as above
Procedure: (§3) Cells were maintained in vitro in RPMI 1640 containing 10% (v/v) heat inactivated FBS and 2 mM L-glutamine (growth media) at 37° C. in 5% CO2 and humidified conditions. Cells were harvested, washed, resuspended into growth medium and counted. The cells were re-suspended into assay media (RPMI 1640+1% (v/v) heat inactivated FBS+ and 2 mM L-glutamine) at 0.5-1×10^5 cells/ml (dependent upon cell type) and plated into 96-well assay plates (Corning, black-wall plates) in 50 ul/well aliquots.
(§4) Plates were incubated overnight at 37° C. in 5% humidified CO2 prior to addition of the compounds. […] Stocks of all compounds were then serially diluted. Final concentrations to which cells were exposed were 300, 150, 75, 37.5, 18.75, 9.4, 4.7, 2.3, 1.2, 0.6 μM. Positive control was Cisplatin. Cisplatin was diluted in 1% FBS media to give a stock concentration of 1 mM. Cisplatin stock was then serially diluted. Final concentrations to which cells were exposed were 100, 50, 25, 12.5, 6.3, 3.1, 1.6, 0.8, 0.4, 0.2 μM.
(§5) Plates were incubated for 72 hrs at 37° C. in 5% humidified CO2 after addition of the compounds. Viability of the cells was assessed with the Cell titer Blue™ (Promega) assay. 10 μl of Cell titer Blue™ reagents was added to each test/blank well. Plates were incubated 3 h at 37° C. in 5% humidified CO2 prior to analysis. Fluorescence was measured with a Flex II station plate reader. Excitation wavelength was 570 nm, emission wave length was 600 nm, cut off was 590 nm. Raw data was processed by GraphPad Prism to calculate mean, standard deviation and IC50 values.

MDA-MB-231 = assay: as above
Procedure: as §3, §4, §5

[1] = tested on: platelet-rich plasma (PRP); assay: Platelet-aggregation-inducing effects in platelet-rich plasma, absorbance 630 nm; type: cell-based; details: 7 minutes, human PRP
Procedure: Blood necessary to generate PRP was obtained from 4 healthy human volunteers. 100 ml of fresh venous blood from each donor was isolated directly into tubes containing 1/10th volume of the anti-coagulant Tri-Sodium Citrate (3.2% w/v). The blood and anti-coagulant were immediately mixed and the final concentration of Tri-Sodium Citrate was 0.0106 M.
PRP was prepared by centrifugation of anti-coagulated blood at 180 g for 10 minutes at room temperature. The cloudy yellow supernatant containing the platelets was removed and placed into a clean polypropylene tube. Platelet-poor plasma (PPP) was prepared by centrifuging the remaining sample at 1,200 g for 20 minutes at room temperature. The PRP was adjusted to a suitable platelet count and absorbance at 630 nm by addition of PPP.
All three compounds were dissolved in 100% DMSO to give a stock concentration of 60 mM. […] […] 100 nM gamma thrombin (Cambridge bioscience) was used as control for platelet aggregation. 90 μl aliquots of PRP were added to 96 wells plates. A baseline absorbance reading was taken at 630 nm. 5 μl of the compounds and gamma thrombin control was added to the appropriate PRP.
The plates were incubated at room temperature for 7 minutes on a plate shaker with continuous shaking. A second A630 nm reading was made after the 7 minutes incubation to measure any platelet aggregation induced by the compounds.

MDA-MB-231 Dlux = assay: Orthotopic spontaneous metastasis breast model, whole body bioluminescence; type: in vivo, female MF-1 nude mice; details: for total flux, whole body bioluminescence: mono-Sulfestrol 60 mg/kg, di-Sulfestrol 80 mg/kg orally once a day
Procedure: Female MF-1 nude mice (HsdOla:MF1-Foxn1nu, Harlan, UK) were divided into 3 groups of each 8 mice (n=8):
The mice were 5-6 weeks old at the start of the study and were maintained in sterile isolators within a barriered unit illuminated by fluorescent lights set to give a 12 hour light-dark cycle (on 07.00, off 19.00). The room was air-conditioned to maintain an air temperature range of 23±2° C. Sterile irradiated 2019 rodent diet (Harlan Teklad UK, product code Q219DJ1R2) and autoclaved water were offered ad libitum.
The MDA-MB-231 Dlux cells were maintained in vitro in RPMI containing 2 mM L-Glut and (Life Technologies, UK) and 10% (v/v) heat-inactivated foetal bovine serum (Sigma, Poole, UK) at 37° C. in 5% CO2 and humidified conditions. Cells were treated with Zeocin once a week at 0.4 mg/mL.
On the day of initiation cells were harvested from semi-confluent monolayers with 0.05% Trypsin-EDTA, washed twice in the culture medium and counted. Cells with viability of >90% were re-suspended, for in vivo administration, in 1:1 PBS:Matrigel at 2×10^6 cells/0.1 mL. Prior to injection, the cell suspension was homogenized and 0.1 mL of cell suspension was drawn into a 1 mL syringe. The cell suspension was then injected orthotopically into the lower left-side 2nd mammary fat pad of each mouse under anaesthesia (Medetomidine/Ketamine).
On day 7 after initiation and every six days thereafter, the mice were injected (s.c.) with 150 mg/kg D-Luciferin. 10 minutes following administration of D-Luciferin mice were anaesthetised and 15 minutes after administration they were placed into an imaging chamber (Spectrum CT) and imaged for luminescence (ventral view; whole body and shielding of the primary tumor). Images were captured and processed by Living Image 4.3.1 software (Caliper LS, US.).
On day 7 after initiation mice were assigned to groups such that there was a uniform mean bioluminescent signal between the groups.

4-(4-(4-oxidophenyl)hex-3-en-3-yl)phenyl sulfate [Mono-Sulfestrol]
cytotoxicity in vitro (in words) (DU-145; DU-145): inactive
IC50 value (DU-145; DU-145, hormone-independent prostate cancer cell line, 72 hrs): Not active
cytotoxicity in vitro (in words) (LNCaP): inactive
IC50 value (LNCaP; hormone-dependent prostate cancer cell line, 72 hrs): Not active
cytotoxicity in vitro (in words) (MCF7; MCF7): cytotoxic
IC50 (MCF7; read-out: IC50 value, MCF7, hormone-dependent breast cancer cell line, 72 hrs): 85 µM
cytotoxicity in vitro (in words) (MDA-MB-231; MDA-MB231): cytotoxic
IC50 (MDA-MB-231; read-out: IC50 value, MDA-MB-231, triple negative breast cancer cell line, 72 hrs): 185 µM
Absorbance (630 nm) ([1]; 2.3 μM, high absorbance = low aggregation): 0.274 ± 0.034
Absorbance (630 nm) ([1]; 4.7 μM): 0.277 ± 0.029
Absorbance (630 nm) ([1]; 9.4 μM): 0.272 ± 0.029
Absorbance (630 nm) ([1]; 18.75 μM): 0.275 ± 0.029
Absorbance (630 nm) ([1]; 37.5 μM): 0.278 ± 0.030
Absorbance (630 nm) ([1]; 75 μM): 0.281 ± 0.031
Absorbance (630 nm) ([1]; 150 μM): 0.283 ± 0.036
total flux, whole body bioluminescence (MDA-MB-231 Dlux; Day 7 (before start of treatment)): 1.72 10^9 photons/second
total flux, whole body bioluminescence (MDA-MB-231 Dlux; Day 13): 5.89 10^9 photons/second
total flux, whole body bioluminescence (MDA-MB-231 Dlux; Day 19): 9.22 10^9 photons/second
effect on tumor progression (in words) (MDA-MB-231 Dlux; oral, MDA-MB-231 Dlux in mice): tumor progression inhibiting effect

From patent publication US20170246137A1, “SULFESTROL FOR TREATING CANCER” (CHAMAELEO PHARMA BVBA, priority 2012, published 2017)
